How the values were obtained:
[1] = test system: E. tenella schizont development; assay: Schizont maturation assay; type: cell-based, Eimeria tenella; details: n=2
[2] = biological target: HsCDK2 (Homo sapiens, UniProt P24941); assay: biochemical
[3] = biological target: EtCRK2 (Eimeria tenella, UniProt Q6R8F0); assay: TR-FRET; type: biochemical
Sequence of EtCRK2 (Q6R8F0 1-296): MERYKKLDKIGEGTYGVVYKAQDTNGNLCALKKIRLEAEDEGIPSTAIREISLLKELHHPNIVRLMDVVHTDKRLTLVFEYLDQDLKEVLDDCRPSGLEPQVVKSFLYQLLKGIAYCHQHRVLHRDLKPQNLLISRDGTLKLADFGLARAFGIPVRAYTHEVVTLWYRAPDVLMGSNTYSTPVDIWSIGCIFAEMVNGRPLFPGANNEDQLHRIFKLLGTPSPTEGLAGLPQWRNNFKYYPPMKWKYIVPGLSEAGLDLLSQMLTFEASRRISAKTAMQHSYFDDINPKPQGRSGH

IC50 [2] | Ki [2] | IC50 [3] | Ki [3] | SMILES | inhibition of E. tenella schizont development ([1]; 150 nM) | inhibition of E. tenella schizont development ([1]; 300 nM) | inhibition of E. tenella schizont development ([1]; concentrations below 80 nM)
 |  |  |  | CN1CC[C@H](c2c(O)cc(O)c3c(=O)cc(-c4ccccc4Cl)oc23)[C@H](O)C1 [Flavopiridol, 2-(2-Chlorophenyl)-5,7-dihydroxy-8-[(3S,4R)-3-hydroxy-1-methyl-4-piperidinyl]-4H-1-benzopyran-4-one] | fully inhibited | fully inhibited | no inhibitory effects
26 ± 19 µM | 17 ± 8 µM | 23 ± 14 µM | 16 ± 9 µM | O=C(O)CN1C(=O)/C(=C2\SC(=S)NC2=O)c2ccccc21 [BES062021, 2-[(3Z)-2-oxo-3-(4-oxo-2-thioxo-thiazolidin-5-ylidene)indolin-1-yl]acetic acid] |  |  | 
12 ± 7 µM | 2 ± 1 µM | 36 ± 8 µM | 6 ± 2 µM | CCN(CC)S(=O)(=O)c1ccc2c3c(cccc13)C(=O)N2 [BES143551, N,N-diethyl-2-oxo-1,2-dihydrobenzo[cd]indole-6-sulfonamide] |  |  | 
 |  | 61 ± 27 µM | 83 ± 29 µM | Cc1c(CCC(=O)O)c(=O)n2c([nH]c3ccccc32)c1C#N [BES241415, 3-(4-cyano-3-methyl-1-oxo-5H-pyrido[1,2-a]benzimidazol-2-yl)propanoic acid] |  |  | 
35 ± 3 µM | 8 ± 2 µM | 15 ± 3 µM | 8 ± 2 µM | O=C1NC(=Nc2nc3cc([N+](=O)[O-])ccc3[nH]2)NC1=O [BES252034, 2-[(5-nitro-1H-benzimidazol-2-yl)imino]imidazolidine-4,5-dione] |  |  | 

— PMC3252702 (ChemMedChem, 2010)
